Data from patent publication US10155788B2, “Cationic steroidal antimicrobial prodrug compositions and uses thereof” (BRIGHAM YOUNG UNIVERSITY, priority 2014, dated 2018).
In brackets after ≈: the same amount, converted by molar mass.

Tests used:
[1] = tested on: ATCC 25923 strain of staphylococcus aureus; assay: Minimum inhibitory concentration against staph A; type: cell-based; settings: ATCC25923; staphylococcus aureus ATCC 25923
Experimental: The pharmacological analysis of the methane sulfonate prodrug of CSA-13 (CSA-13 MS) versus the free base CSA-13 compound was assessed for their antimicrobial properties against the ATCC 25923 strain of staphylococcus aureus (hereinafter “staph A”).

C57BL/6 female mice = assay: Maximum Tolerated Dose study of CSA-192 MS, intravenous, in mice; type: in vivo; settings: for mortality and abnormal clinical signs: 7 days observation
Source text: The objective of this study was to determine the Maximum Tolerated Dose (MTD) of CSA-192 MS following intravenous (i.v.) administration at various dose levels in C57BL/6 female mice. FIG. 2 is a graph showing CSA-192 MS Kinetics.
Immunocompetent C57BL/6 female mice weighing 16 to 20 g were obtained from the University of Sevilla's facility. The number of animals that were selected for use in this study was considered to be the minimum requirement to meet rational scientific endpoints.
One the first day of the study, mice were subjected to randomization and allocated to different groups, so that each group (G) contains 6 females. Each cage housed 6 mice. Each cage was identified by a cage card, with details like study item, species, strain, sex, number of animals, date, dose, and investigator name.
The study was conducted at four different dose levels. On day 1 of treatment all the animals in G1, G2, G3, and G4 groups were administered with CSA-192 MS at 4, 8, 16, and 32 mg/kg based on their body weight. Dose volumes were maintained at 0.2 mL for G1, G2, and G3. The dose volume for G4 was 0.32 mL.
More particularly, the test item was administered by intravenous route, at dose concentration of 4 mg/kg body weight for G1, 8 mg/kg body weight for G2, 16 mg/kg body weight for G3, and 32 mg/kg body weight G4 groups, respectively. Dose volumes were maintained at 0.2 mL for G1, G2, and G3. For group G4 the dose volume was 0.32 mL.
The first day they were checked immediately after dose administration, at 30 min, 1 hour, and every 4 hours, the following days twice a day. Mice were sacrificed on day 7 of the study period.

CCCCCCCCNCCC[C@@H](C)[C@H]1CC[C@H]2[C@@H]3[C@H](OCCCN)C[C@@H]4C[C@H](OCCCN)CC[C@]4(C)[C@H]3C[C@H](OCCCN)[C@]12C [CSA-13]
MIC [1]: 1.6 µg/mL (≈ 2.36 µM)

CCCCCCCCNC(=O)CC[C@@H](C)[C@H]1CC[C@H]2[C@@H]3[C@H](OCCCN)C[C@@H]4C[C@H](OCCCN)CC[C@]4(C)[C@H]3C[C@H](OCCCN)[C@]12C [CSA-192 MS]
mortality and abnormal clinical signs (C57BL/6 female mice; 4.0 mg/kg body weight (G1), intravenously): no incidences of mortality and abnormal clinical signs
mortality and abnormal clinical signs (C57BL/6 female mice; 8.0 mg/kg body weight (G2), intravenously): no incidences of mortality and abnormal clinical signs
clinical signs (C57BL/6 female mice; 16.0 mg/kg body weight (G3), intravenously, immediately after administration, disappeared after an hour, rest of G3 without signs): one animal showed signs of somnolence
mortality and abnormal clinical signs (C57BL/6 female mice; 32.0 mg/kg body weight (G4), intravenously): no incidences of mortality and abnormal clinical signs
Clinical observations/No of animals per group (C57BL/6 female mice; G1 4 mg/Kg i.v., Day 1): 0/6
No of animals found dead/No. of animals per group (C57BL/6 female mice; G1 4 mg/Kg i.v., Day 1): 0/6
Clinical observations/No of animals per group (C57BL/6 female mice; G1 4 mg/Kg i.v., Day 2): 0/6
No of animals found dead/No. of animals per group (C57BL/6 female mice; G1 4 mg/Kg i.v., Day 2): 0/6
Clinical observations/No of animals per group (C57BL/6 female mice; G1 4 mg/Kg i.v., Day 3): 0/6
No of animals found dead/No. of animals per group (C57BL/6 female mice; G1 4 mg/Kg i.v., Day 3): 0/6
Clinical observations/No of animals per group (C57BL/6 female mice; G1 4 mg/Kg i.v., Day 4): 0/6
No of animals found dead/No. of animals per group (C57BL/6 female mice; G1 4 mg/Kg i.v., Day 4): 0/6
Clinical observations/No of animals per group (C57BL/6 female mice; G1 4 mg/Kg i.v., Day 5): 0/6
No of animals found dead/No. of animals per group (C57BL/6 female mice; G1 4 mg/Kg i.v., Day 5): 0/6
Clinical observations/No of animals per group (C57BL/6 female mice; G1 4 mg/Kg i.v., Day 6): 0/6
No of animals found dead/No. of animals per group (C57BL/6 female mice; G1 4 mg/Kg i.v., Day 6): 0/6
Clinical observations/No of animals per group (C57BL/6 female mice; G1 4 mg/Kg i.v., Day 7): 0/6
No of animals found dead/No. of animals per group (C57BL/6 female mice; G1 4 mg/Kg i.v., Day 7): 0/6
Clinical observations/No of animals per group (C57BL/6 female mice; G2 8 mg/kg i.v., Day 1): 0/6
No of animals found dead/No. of animals per group (C57BL/6 female mice; G2 8 mg/kg i.v., Day 1): 0/6
Clinical observations/No of animals per group (C57BL/6 female mice; G2 8 mg/kg i.v., Day 2): 0/6
No of animals found dead/No. of animals per group (C57BL/6 female mice; G2 8 mg/kg i.v., Day 2): 0/6
Clinical observations/No of animals per group (C57BL/6 female mice; G2 8 mg/kg i.v., Day 3): 0/6
No of animals found dead/No. of animals per group (C57BL/6 female mice; G2 8 mg/kg i.v., Day 3): 0/6
Clinical observations/No of animals per group (C57BL/6 female mice; G2 8 mg/kg i.v., Day 4): 0/6
No of animals found dead/No. of animals per group (C57BL/6 female mice; G2 8 mg/kg i.v., Day 4): 0/6
Clinical observations/No of animals per group (C57BL/6 female mice; G2 8 mg/kg i.v., Day 5): 0/6
No of animals found dead/No. of animals per group (C57BL/6 female mice; G2 8 mg/kg i.v., Day 5): 0/6
Clinical observations/No of animals per group (C57BL/6 female mice; G2 8 mg/kg i.v., Day 6): 0/6
No of animals found dead/No. of animals per group (C57BL/6 female mice; G2 8 mg/kg i.v., Day 6): 0/6
Clinical observations/No of animals per group (C57BL/6 female mice; G2 8 mg/kg i.v., Day 7): 0/6
No of animals found dead/No. of animals per group (C57BL/6 female mice; G2 8 mg/kg i.v., Day 7): 0/6
Clinical observations/No of animals per group (C57BL/6 female mice; G3 16 mg/kg i.v., Day 1): 1/6
No of animals found dead/No. of animals per group (C57BL/6 female mice; G3 16 mg/kg i.v., Day 1): 0/6
Clinical observations/No of animals per group (C57BL/6 female mice; G3 16 mg/kg i.v., Day 2): 0/6
No of animals found dead/No. of animals per group (C57BL/6 female mice; G3 16 mg/kg i.v., Day 2): 0/6
Clinical observations/No of animals per group (C57BL/6 female mice; G3 16 mg/kg i.v., Day 3): 0/6
No of animals found dead/No. of animals per group (C57BL/6 female mice; G3 16 mg/kg i.v., Day 3): 0/6
Clinical observations/No of animals per group (C57BL/6 female mice; G3 16 mg/kg i.v., Day 4): 0/6
No of animals found dead/No. of animals per group (C57BL/6 female mice; G3 16 mg/kg i.v., Day 4): 0/6
Clinical observations/No of animals per group (C57BL/6 female mice; G3 16 mg/kg i.v., Day 5): 0/6
No of animals found dead/No. of animals per group (C57BL/6 female mice; G3 16 mg/kg i.v., Day 5): 0/6
Clinical observations/No of animals per group (C57BL/6 female mice; G3 16 mg/kg i.v., Day 6): 0/6
No of animals found dead/No. of animals per group (C57BL/6 female mice; G3 16 mg/kg i.v., Day 6): 0/6
Clinical observations/No of animals per group (C57BL/6 female mice; G3 16 mg/kg i.v., Day 7): 0/6
No of animals found dead/No. of animals per group (C57BL/6 female mice; G3 16 mg/kg i.v., Day 7): 0/6
Clinical observations/No of animals per group (C57BL/6 female mice; G4 32 mg/kg i.v., Day 1): 0/6
No of animals found dead/No. of animals per group (C57BL/6 female mice; G4 32 mg/kg i.v., Day 1): 0/6
Clinical observations/No of animals per group (C57BL/6 female mice; G4 32 mg/kg i.v., Day 2): 0/6
No of animals found dead/No. of animals per group (C57BL/6 female mice; G4 32 mg/kg i.v., Day 2): 0/6
Clinical observations/No of animals per group (C57BL/6 female mice; G4 32 mg/kg i.v., Day 3): 0/6
No of animals found dead/No. of animals per group (C57BL/6 female mice; G4 32 mg/kg i.v., Day 3): 0/6
Clinical observations/No of animals per group (C57BL/6 female mice; G4 32 mg/kg i.v., Day 4): 0/6
No of animals found dead/No. of animals per group (C57BL/6 female mice; G4 32 mg/kg i.v., Day 4): 0/6
Clinical observations/No of animals per group (C57BL/6 female mice; G4 32 mg/kg i.v., Day 5): 0/6
No of animals found dead/No. of animals per group (C57BL/6 female mice; G4 32 mg/kg i.v., Day 5): 0/6
Clinical observations/No of animals per group (C57BL/6 female mice; G4 32 mg/kg i.v., Day 6): 0/6
No of animals found dead/No. of animals per group (C57BL/6 female mice; G4 32 mg/kg i.v., Day 6): 0/6
Clinical observations/No of animals per group (C57BL/6 female mice; G4 32 mg/kg i.v., Day 7): 0/6
No of animals found dead/No. of animals per group (C57BL/6 female mice; G4 32 mg/kg i.v., Day 7): 0/6
treatment related change in body weight (C57BL/6 female mice; all groups (4, 8, 16, 32 mg/kg i.v.)): No treatment related change in body weight was observed
mortality (C57BL/6 female mice; any of the groups (4, 8, 16, 32 mg/kg i.v.), 7 days): no mortality was observed
